Like-named read-outs stand apart in the source and are kept apart here.
Legend:
[1] = target: recombinant human NF-kappaB-inducing kinase (NIK/MAP3K14) (Homo sapiens (Human), UniProt Q99558); test: Inhibition of auto-phosphorylation of recombinant human NIK/MAP3K14 activity (AlphaScreen); format: biochemical; conditions: averaged values over all measurements on all batches
Outline: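 AlphaScreen read-out, using anti-phospho-IKK Ser176/180 antibody, tracked NIK autophosphorylation after 1 h at 25° C. Reactions held 0.2 nM GST-NIK, 25 microM ATP and compound in 1% DMSO, Tris pH 7.5 buffer. IC50 fitted sigmoidally to blank-subtracted inhibition data.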

[2] = test system: KMS12-BM cells; test: Antiproliferative activity on KMS12-BM (NIK WT) multiple myeloma cells (CellTiter-Glo); format: cell-based, human; conditions: KMS12-BM (NIK WT) cells, 96 hr, averaged values, read-out: KMS-12 Proliferation inhibition (IC50 (nM))
Outline: (§1)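 Viability was read by CellTiter-Glo after 96 hr compound exposure (9-point, 1:3 serial dilutions; 0.3% DMSO final). JJN-3 and KMS12-BM cells were seeded at 15000 and 20000 per well respectively in RPMI 1640/10% FCS; blank-subtracted signals were given as percent of drug-free controls.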

[3] = test system: P-IKKα levels in L363 cells; test: Effect of compounds on P-IKKα levels in L363 (NIK translocated multiple myeloma) cells; format: cell-based, human; conditions: averaged values, read-out: Inhibition of pIKKα_L-363 (IC50 (nM))
Method: Effect of compounds on P-IKKα levels in L363 (NIK translocated multiple myeloma) cells
All compounds tested were dissolved in DMSO and further dilutions were made in culture medium. Final DMSO concentration was 1% (v/v) in cell assays. The human L363 cells (ATCC) were cultured in RPMI 1640 medium supplemented with GlutaMax and 10% fetal calf serum (PAA). Cells were routinely maintained at densities of 0.2×10^6 cells per ml-1×10^6 cells per ml at 37° C. in a humidified 5% CO2 atmosphere. Cells were passaged twice a week splitting back to obtain the low density. Cells were seeded in 96 well plates (Nunc 167008) at 2×10^6 per ml media in a volume of 75 μl per well plus 25 μl 1 μg/ml recombinant human B-cell activating factor (BAFF/BLyS/TNFSF13B). Seeded cells were incubated at 37° C. in a humidified 5% CO2 atmosphere for 24 hr. Drugs and/or solvents were added (20 μl) to a final volume of 120 μl. Following 2 hr treatment plates were removed from the incubator and cell lysis was achieved by the addition of 30 μl 5× lysis buffer followed by shaking on a plate shaker at 4° C. for 10 min. At the end of this incubation lysed cells were centrifuged at 800×g for 20 min at 4° C. and the lysate was assessed for P-IKKα levels by sandwich immuno-assay carried out in anti-rabbit antibody coated Mesoscale plates. Within an experiment, the results for each treatment were the mean of 2 replicate wells. For initial screening purposes, compounds were tested using an 8 point dilution curve (serial 1:3 dilutions). For each experiment, controls (containing MG132 and BAFF but no test drug) and a blank incubation (containing MG132 and BAFF and 10 μM ADS125117, a test concentration known to give full inhibition) were run in parallel. The blank incubation value was subtracted from all control and sample values. To determine the IC50 a sigmoidal curve was fitted to the plot of % inhibition of control P-IKKα levels versus Log10 compound concentration.

[4] = test system: JJN-3 cells; test: Antiproliferative activity on JJN-3 (NIK translocated) multiple myeloma cells (CellTiter-Glo); format: cell-based, human; conditions: Homo sapiens, JJN-3, 96 h, JJN-3 (NIK translocated) cells, 96 hr; averaged values; read-out: JJN-3 Proliferation inhibition (IC50 (nM))
Outline: as §1

[5] = Homo sapiens, L-363, L363 cells

Chain of recombinant human NF-kappaB-inducing kinase (NIK/MAP3K14) (Q99558 whole entry): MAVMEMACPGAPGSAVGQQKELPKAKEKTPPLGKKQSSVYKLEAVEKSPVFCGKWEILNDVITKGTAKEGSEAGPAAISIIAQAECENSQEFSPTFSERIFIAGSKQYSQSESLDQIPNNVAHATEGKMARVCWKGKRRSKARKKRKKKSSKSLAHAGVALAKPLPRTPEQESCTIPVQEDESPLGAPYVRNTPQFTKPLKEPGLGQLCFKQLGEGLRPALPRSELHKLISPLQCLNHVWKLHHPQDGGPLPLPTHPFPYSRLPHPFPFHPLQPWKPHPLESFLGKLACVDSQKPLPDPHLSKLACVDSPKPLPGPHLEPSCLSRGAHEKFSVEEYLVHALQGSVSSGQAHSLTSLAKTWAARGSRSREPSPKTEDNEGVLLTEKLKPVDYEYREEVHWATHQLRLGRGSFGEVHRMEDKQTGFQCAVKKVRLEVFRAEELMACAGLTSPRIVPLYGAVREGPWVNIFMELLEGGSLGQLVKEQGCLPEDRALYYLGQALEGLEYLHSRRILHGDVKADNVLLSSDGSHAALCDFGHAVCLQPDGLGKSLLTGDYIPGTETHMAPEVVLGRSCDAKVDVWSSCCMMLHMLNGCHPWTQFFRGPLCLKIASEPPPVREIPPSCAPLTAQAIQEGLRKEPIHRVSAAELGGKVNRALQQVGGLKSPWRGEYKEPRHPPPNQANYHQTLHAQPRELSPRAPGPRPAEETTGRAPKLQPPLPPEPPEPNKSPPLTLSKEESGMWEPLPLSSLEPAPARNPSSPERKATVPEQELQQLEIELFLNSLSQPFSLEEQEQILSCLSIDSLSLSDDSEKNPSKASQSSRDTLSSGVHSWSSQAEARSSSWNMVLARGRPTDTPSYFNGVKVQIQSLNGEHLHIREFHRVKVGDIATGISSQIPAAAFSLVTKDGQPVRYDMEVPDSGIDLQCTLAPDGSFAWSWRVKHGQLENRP

IC50 [1] [nM]	IC50 [2] [nM]	IC50 ([3]; L363 cells) [nM]	IC50 [4] [nM]	IC50 ([2]; Homo sapiens, KMS-12-BM, 96 h) [nM]	IC50 [3, 5] [nM]	Structure (SMILES)
11	> 10000	11	437	–	–	Cc1cc(Nc2nccc(-c3cc(C#N)c4c(c3)[C@@](C)(CO)CN4)n2)n(CC2COCCO2)n1 (single isomer, unassigned) [Compound 84]
4	–	–	447	> 10000	33	CN(C(=O)Cn1nc(Cl)cc1Nc1nccc(-c2cc(C#N)c3c(c2)[C@@](C)(CO)CN3)n1)C1CC1 [Compound 118]
2.8	–	–	38	~7430	7	C[C@]1(CO)CNc2c(C#N)cc(-c3ccnc(Nc4cn(CC(F)F)nc4OC4CC4)n3)cc21 [Compound 218]
3.4	–	–	117	> 10000	15	COCCCn1ncc(Nc2nccc(-c3cc(C#N)c4c(c3)[C@@](C)(CO)CN4)n2)c1CCC(C)C [Compound 104]
6.8	–	–	2140	> 10000	9	Cc1cc(Nc2nccc(-c3cc(C#N)c4c(c3)[C@@](C)(CO)CN4)n2)n(CC(=O)N2CCCC2)n1 [Compound 88]
2.2	–	–	5	~4900	1	C[C@]1(CO)CNc2c(C#N)cc(-c3ccnc(Nc4cn(CC(F)F)nc4C4CC4)n3)cc21 [Compound 205]
5.6	–	–	195	> 10000	11	C[C@]1(CO)CNc2c(C#N)cc(-c3cc(Nc4cn(CC(F)F)nc4C4CCOCC4)ncn3)cc21 [Compound 220]
13	–	–	37	> 10000	151	CN1CCN(Cc2nn(C)cc2Nc2nccc(-c3cc(C#N)c4c(c3)[C@@](C)(CO)CN4)n2)CC1 [Compound 166]
4.6	–	–	62	4270	10	C[C@]1(CO)CNc2c(C#N)cc(-c3ccnc(Nc4cc(Cl)nn4CCC4CC4)n3)cc21 [Compound 115]
8.1	–	–	91	> 10000	6	Cn1ncc(Nc2nccc(-c3cc(C#N)c4c(c3)[C@@](C)(CO)CN4)n2)c1OC1CC1 [Compound 192]
10	–	–	81	> 10000	28	COCCCn1nc(C)cc1Nc1nccc(-c2cc(C#N)c3c(c2)[C@@](C)(COC(C)=O)CN3)n1 [Compound 177]
8.3	–	–	554	5250	36	CNC(=O)c1cc(Nc2nccc(-c3cc(C#N)c4c(c3)[C@@](C)(CO)CN4)n2)n(C2CCCC2)n1 [Compound 196]
3.6	–	–	69	~5010	34	CN1CCC(F)(Cn2nc(Cl)cc2Nc2nccc(-c3cc(C#N)c4c(c3)[C@@](C)(CO)CN4)n2)CC1 [Compound 160]
6	–	–	1000	> 10000	115	CC(C)CCc1nn(Cc2cncn2C)cc1Nc1nccc(-c2cc(C#N)c3c(c2)[C@@](C)(CO)CN3)n1 [Compound 130]
13	–	–	83	> 10000	62	CN1CCN(Cc2c(Nc3nccc(-c4cc(C#N)c5c(c4)[C@@](C)(CO)CN5)n3)cnn2CCC2CC2)CC1 [Compound 167]
12	–	–	309	> 10000	5	CC(C)CCc1c(Nc2nccc(-c3cc(C#N)c4c(c3)[C@@](C)(CO)CN4)n2)cnn1CC1CCN(CC(F)(F)F)CC1 [Compound 163]
~6.5	–	–	3240	> 10000	34	Cc1cc(Nc2nccc(-c3cc(C#N)c4c(c3)[C@@](C)(CO)CN4)n2)n(CC(=O)N2CC(F)(F)C2)n1 [Compound 87]
3.5	–	–	120	> 10000	1	CC(C)CCc1c(Nc2nccc(-c3cc(C#N)c4c(c3)[C@@](C)(CO)CN4)n2)cnn1CCN1CCOCC1 [Compound 125]

IC50 [1] [nM]	IC50 [2] [nM]	IC50 ([3]; L363 cells) [nM]	IC50 [4] [nM]	IC50 ([2]; Homo sapiens, KMS-12-BM, 96 h) [nM]	IC50 [3, 5] [nM]	Structure (SMILES)
4.3	–	–	1440	> 10000	28	COCCn1nc(CO)cc1Nc1nccc(-c2cc(C#N)c3c(c2)[C@@](C)(CO)CN3)n1 [Compound 153]
7.9	–	–	209	> 10000	4	CC(C)n1nc(Nc2nccc(-c3cc(C#N)c4c(c3)C(C)(CO)CN4)n2)cc1C(=O)NC1CCOCC1 (centres unmarked) [Compound 35]
6	–	–	269	> 10000	11	CC(C)CCc1c(Nc2nccc(-c3cc(C#N)c4c(c3)[C@@](C)(CO)CN4)n2)cnn1Cc1nccn1C [Compound 117]
4	–	–	339	> 10000	25	Cn1cc(Nc2nccc(-c3cc(C#N)c4c(c3)[C@@](C)(CO)CN4)n2)c(OCCN2CCOCC2)n1 [Compound 203]
4.7	–	–	46	~6720	2	COCCc1nn(CC(F)F)cc1Nc1nccc(-c2cc(C#N)c3c(c2)[C@@](C)(CO)CN3)n1 [Compound 180]
3.6	–	–	1260	~7240	14	CC(C)n1nc(CO)cc1Nc1nccc(-c2cc(C#N)c3c(c2)[C@@](C)(CO)CN3)n1 [Compound 156]
6.8	–	–	479	~1660	1020	Cc1nn(C2CCN(C)CC2)cc1Nc1nccc(-c2cc(C#N)c3c(c2)[C@@](C)(CO)CN3)n1 [Compound 122]
4.3	–	–	204	2240	83	CN1CC[C@@H](Cn2nc(Cl)cc2Nc2nccc(-c3cc(C#N)c4c(c3)[C@@](C)(CO)CN4)n2)C1 [Compound 161]
2.9	–	–	102	724	3	Cc1c(Nc2nccc(-c3cc(C#N)c4c(c3)[C@@](C)(CO)CN4)n2)cnn1C1CCOCC1 [Compound 72]
6.3	–	–	676	> 10000	36	Cc1cc(Nc2nccc(-c3cc(C#N)c4c(c3)[C@@](C)(CO)CN4)n2)n(CC2CCN(CC(F)(F)F)CC2)n1 [Compound 137]
3	–	–	138	2040	4	CC(C)CCn1nc(CO)cc1Nc1nccc(-c2cc(C#N)c3c(c2)[C@@](C)(CO)CN3)n1 [Compound 110]
6	–	–	91	> 10000	20	CN1CCN(Cc2nn(CC(F)F)cc2Nc2nccc(-c3cc(C#N)c4c(c3)[C@@](C)(CO)CN4)n2)CC1 [Compound 185]
6.5	–	–	151	617	3	Cc1cc(Nc2nccc(-c3cc(C#N)c4c(c3)[C@@](C)(CO)CN4)n2)n(CC(F)F)n1 [Compound 186]
1.9	–	–	195	1320	2	C=CCn1nc(C)cc1Nc1nccc(-c2cc(C#N)c3c(c2)[C@@](C)(CO)CN3)n1 [Compound 73]
5.1	–	–	> 10000	> 10000	229	Cc1cc(Nc2nccc(-c3cc(C#N)c4c(c3)[C@@](C)(CO)CN4)n2)n(CC(=O)O)n1 [Compound 135]
3.5	–	–	1900	> 10000	25	CCn1ncc(Nc2nccc(-c3cc(C#N)c4c(c3)[C@@](C)(CO)CN4)n2)c1N1CCOCC1 [Compound 199]
6.3	–	–	1580	> 10000	71	CC(C)n1nc(C(=O)N2CCCC2)cc1Nc1nccc(-c2cc(C#N)c3c(c2)[C@@](C)(CO)CN3)n1 [Compound 210]

— patent US11136311B2, “Heteroaromatic derivatives as NIK inhibitors” (Janssen Pharmaceutica NV, priority 2016, dated 2021)
